From patent US10500219B2, “Compositions and methods for tissue regeneration” (ORBIS HEALTH SOLUTIONS LLC, priority 2012, dated 2019)

System: chronic Foot Rot
Assay: Chronic Foot Rot with proliferative mass in a heifer (Example 25)
Assay type: in vivo, American Shorthorn heifer
Details: injectable antibiotic for 7 days, before cream treatment
Text: A two-year old female American Shorthorn heifer was presented with lameness and a proliferative mass (3″ in diameter)with associated swelling and large dense scab between the digits of the left hind foot diagnosed as chronic Foot Rot. […] After 4 months lameness reoccurred and the area again became inflamed. […] A surgical consultation determined that the area needed to be surgically excised under general anesthesia. Due to late term pregnancy, surgery was postponed until after delivery. While waiting for surgery, the cream of Example 18 was applied once daily by massaging the cream into the area between the digits. […] No surgery or further antibiotic therapy was anticipated. FIG. 11A depicts the infection in the left hind foot before treatment and FIG. 11B depicts the infected area after 3 weeks of treatment with the cream of Example 18.

## CS(=O)(=O)c1ccc([C@@H](O)[C@@H](CF)NC(=O)C(Cl)Cl)cc1 [Nuflor]
  lameness: reduced lameness
  reduction of mass size: approximately ⅓
